Reference: patent US20220249399A1, “COMPOSITION COMPRISING AN ANTI-OXIDANT TO PRESERVE CORNEAL TISSUE” (University of lowa Research Foundation, priority 2019, published 2022)

How the values were obtained:
[1] = tested on: primary cultures of corneal endothelial cells; assay: Seahorse XFe96 mitochondrial respiration of primary cultures of corneal endothelial cells; format: cell-based, human; details: uncomplexed coenzyme Q10 (100 μM) or cyclodextrin alone vs diluent control
Experimental: (§1) Human corneas were obtained by Iowa Lions Eye Bank (ILEB) from nondiabetic donors 60-75 years old and stored in Optisol GS (Bausch+Lomb, Irvine, Calif.) at 4° C. following procurement in accordance with Eye Bank Association of America and ILEB policies and procedures. Endothelial cells were isolated and cultured in Seahorse XFe96 well plates until they reached confluency. Purity of cell cultures were confirmed with anti-zonula occludens 1 (ZO-1) labeling of cellular tight junctions. Once confluent, cells were treated with different concentrations of cyclodextrin-coenzyme Q10 complex in culture (1 μM, 10 μM, or 100 μM) uncomplexed coenzyme Q10 (100 μM), cyclodextrin alone, or diluent control. Mitochondrial respiration was assayed by measuring oxygen consumption using the Seahorse XFe96 Extracellular Flux Analyzer (Agilent Technologies, Santa Clara, Calif.) over 120 minutes (9-minute intervals). Wells were labeled with a nuclear counterstain (DAPI) and nuclei were counted in each well to normalize respirometry data.
Seahorse respiration assays were conducted with MitoQ with doses ranging from 0 to 10 μM. All experiments were performed on corneal endothelial cells in culture and analyzed using the XFe96 Extracellular Flux Analyzer.
as §1, with “MitoQ with doses ranging from 0 to” for “different concentrations of cyclodextrin-coenzyme Q10 complex in culture (1 μM,”, “μM.” for “μM, or 100 μM) uncomplexed coenzyme Q10 (100 μM), cyclodextrin alone, or diluent control.”

[2] = Stability in water (yellowish discoloration = oxidation to ubiquinone); format: physicochemical; details: shaken in water for 24 h
Experimental: • γ-CD was dissolved in water at different concentrations, and ubiquinol was added to it while stirring (protected from light). • Stirring continues for 2-5 days. Finally, the formed precipitate (complex) was collected and dried. • Yellow discoloration, which indicates the oxidation of ubiquinol following the formation of the yellow oxidized form (ubiquinone), was noticeable at different degrees depending on the stirring time.
In FIG. 11, the image on the right is 5 mg of CoQ10 added to 10 ml H2O and shaken for 24 hours. […] The instability of ubiquinol in water after both free drug or the complex was stirred in water for 24 h explains why the kneading method that involves the minimum amount of water was chosen form preparation.

[3] = tested on: human donor corneal endothelial cells; assay: Mitochondrial respiration assay (Seahorse XFe24 extracellular flux analyzer) of donor corneal endothelium after storage in supplemented Optisol GS; format: cell-based; details: 1 μM coQ10, tissues in storage

## ubiquinol
[1]
  mitochondrial spare respiratory capacity: reduces mitochondrial spare respiratory capacity
[2]
  stability in water (discoloration): yellowish discoloration was noticeable
[3]
  proton leak: no increase in proton leak
